Data published in patent publication US20180353462A1, “[…] AGENTS […] FLAVONOID DERIVATIVES TARGETING KINASES, SIRTUINS AND ONCOGENIC AGENTS FOR THE TREATMENT OF CANCERS” (priority 2015, published 2018).

Key:
c-Kit(D820Y) = target: T1, c-Kit(D820Y) (Homo sapiens, UniProt P10721, D820Y); test: Kinase competition binding assay, c-Kit(D820Y); conditions: Table 1 kinase panel
T1 construct: made in house
Experimental: (§1) Cannabis flavonoids and their analogs were subjected to kinase inhibition assay. The compounds were first screened at a single concentration of 10 μM in the primary assay. […]. To determine the kd or IC50 values, competition binding assays were established, authenticated and executed as described previously. Fabian et al., “A Small Molecule-Kinase Interaction Map For Clinical Kinase Inhibitors.”, Nat Biotechnol, 23(3):329-36, Epub (2005). See also, Karaman et al., “A Quantitative Analysis Of Kinase Inhibitor Selectivity”, Nat. Biotechnol. […] For most assays, kinases were fused to T7 phage strains (Fabian, supra) and for the other assays, kinases were produced in HEK-293 cells after which they were tagged with DNA for quantitative PCR detection. In general, full-length constructs were used for small, single domain kinases, and catalytic domain constructs for large multi-domain kinases. The binding assays utilized streptavidin-coated magnetic beads treated with biotinylated small molecule ligands for 30 minutes at room temperature which generated affinity resins for the kinase assays. The liganded beads were blocked with excess biotin and washed with blocking buffer (SeaBlock (Pierce), 1% BSA, 0.05% Tween 20, 1 mM DTT) to remove unbound ligand and to reduce non-specific phage binding. […] Test compounds were prepared as 40× stocks in 100% DMSO and diluted directly into the assay (Final DMSO concentration=2.5%). All reactions were performed in polypropylene 384-well plates in a final volume of 0.04 ml. […] The beads were then re-suspended in elution buffer (1×PBS, 0.05% Tween 20, 0.5 μM non-biotinylated affinity ligand) and incubated at room temperature with shaking for 30 minutes. The kinase concentration in the eluates was measured by quantitative PCR. An illustration of the kinase interaction process is presented below. Kd/IC50 values were determined using a standard dose response curve using the hill equation. Curves were fitted using a non-linear least square fit with the Levenberg-Marquardt algorithm.
(§2) The compound(s) were screened at 10 μM and results for primary screen binding interactions are reported as ‘% Ctrl’, where lower numbers indicate stronger hits in the matrix.

FGR = target: T2, FGR (Homo sapiens, UniProt P09769); test: Kinase competition binding assay, FGR; conditions: Table 1 kinase panel
T2 construct: made in house
T2 sequence (P09769 whole entry): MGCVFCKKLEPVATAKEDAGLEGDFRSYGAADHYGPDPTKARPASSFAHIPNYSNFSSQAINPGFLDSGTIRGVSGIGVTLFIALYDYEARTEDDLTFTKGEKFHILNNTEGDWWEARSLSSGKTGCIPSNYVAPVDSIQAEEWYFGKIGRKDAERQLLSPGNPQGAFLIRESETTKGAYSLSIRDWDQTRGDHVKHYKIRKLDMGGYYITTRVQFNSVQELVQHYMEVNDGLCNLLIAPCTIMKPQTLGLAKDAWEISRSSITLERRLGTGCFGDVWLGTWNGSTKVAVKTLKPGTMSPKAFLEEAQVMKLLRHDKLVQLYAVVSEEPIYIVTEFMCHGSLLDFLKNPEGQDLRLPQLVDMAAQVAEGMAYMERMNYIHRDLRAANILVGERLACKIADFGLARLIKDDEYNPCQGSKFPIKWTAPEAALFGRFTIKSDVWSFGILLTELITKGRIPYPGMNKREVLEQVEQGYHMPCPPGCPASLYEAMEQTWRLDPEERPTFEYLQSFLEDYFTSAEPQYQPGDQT
Experimental: as §1, §2

FLT4(VEGFR3) = target: T3, FLT4(VEGFR3) (Homo sapiens, UniProt P35916); test: Kinase competition binding assay, FLT4(VEGFR3); conditions: Table 1 kinase panel
T3 construct: made in house
T3 sequence (P35916 25-1363): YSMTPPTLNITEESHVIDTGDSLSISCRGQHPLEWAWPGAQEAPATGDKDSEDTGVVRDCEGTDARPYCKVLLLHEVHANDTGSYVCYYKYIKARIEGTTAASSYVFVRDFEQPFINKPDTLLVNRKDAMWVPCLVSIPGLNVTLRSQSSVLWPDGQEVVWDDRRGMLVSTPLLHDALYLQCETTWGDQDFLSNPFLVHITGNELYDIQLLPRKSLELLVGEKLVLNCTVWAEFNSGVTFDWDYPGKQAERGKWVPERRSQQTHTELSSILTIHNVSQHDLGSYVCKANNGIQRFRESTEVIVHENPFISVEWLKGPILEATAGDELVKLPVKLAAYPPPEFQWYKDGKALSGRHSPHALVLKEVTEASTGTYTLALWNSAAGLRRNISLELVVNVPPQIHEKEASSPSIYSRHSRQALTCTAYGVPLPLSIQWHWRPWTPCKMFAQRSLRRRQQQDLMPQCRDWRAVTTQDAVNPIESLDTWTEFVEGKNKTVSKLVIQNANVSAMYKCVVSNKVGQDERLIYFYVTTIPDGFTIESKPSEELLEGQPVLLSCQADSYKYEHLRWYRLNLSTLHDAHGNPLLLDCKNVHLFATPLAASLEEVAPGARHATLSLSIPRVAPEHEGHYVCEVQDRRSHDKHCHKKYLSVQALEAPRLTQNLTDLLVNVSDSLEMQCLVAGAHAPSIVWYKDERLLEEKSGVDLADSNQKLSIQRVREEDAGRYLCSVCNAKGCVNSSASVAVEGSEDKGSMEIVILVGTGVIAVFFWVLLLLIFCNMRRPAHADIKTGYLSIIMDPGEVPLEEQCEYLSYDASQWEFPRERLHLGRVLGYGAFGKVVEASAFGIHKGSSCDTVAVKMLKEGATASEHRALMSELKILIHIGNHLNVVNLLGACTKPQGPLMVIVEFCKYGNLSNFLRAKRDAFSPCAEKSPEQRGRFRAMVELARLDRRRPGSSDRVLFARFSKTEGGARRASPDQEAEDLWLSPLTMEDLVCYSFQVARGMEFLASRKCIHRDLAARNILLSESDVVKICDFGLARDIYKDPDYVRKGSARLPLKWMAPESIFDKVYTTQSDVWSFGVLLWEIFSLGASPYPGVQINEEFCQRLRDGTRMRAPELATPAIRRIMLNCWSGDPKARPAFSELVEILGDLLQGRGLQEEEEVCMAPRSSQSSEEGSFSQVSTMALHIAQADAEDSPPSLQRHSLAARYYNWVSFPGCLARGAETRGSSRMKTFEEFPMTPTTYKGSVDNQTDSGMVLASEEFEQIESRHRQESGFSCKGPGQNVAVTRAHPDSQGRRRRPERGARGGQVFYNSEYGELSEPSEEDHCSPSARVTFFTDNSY
Experimental: as §1, §2

PDGFRB = target: T4, PDGFRB (Homo sapiens, UniProt P09619); test: Kinase competition binding assay, PDGFRB; conditions: Table 1 kinase panel
T4 construct: catalytic domain constructs for large multi-domain kinases; T7 phage fusion (most assays) or DNA tag for qPCR (HEK-293-made kinases); made in house
T4 sequence (P09619 600-962 limits assumed): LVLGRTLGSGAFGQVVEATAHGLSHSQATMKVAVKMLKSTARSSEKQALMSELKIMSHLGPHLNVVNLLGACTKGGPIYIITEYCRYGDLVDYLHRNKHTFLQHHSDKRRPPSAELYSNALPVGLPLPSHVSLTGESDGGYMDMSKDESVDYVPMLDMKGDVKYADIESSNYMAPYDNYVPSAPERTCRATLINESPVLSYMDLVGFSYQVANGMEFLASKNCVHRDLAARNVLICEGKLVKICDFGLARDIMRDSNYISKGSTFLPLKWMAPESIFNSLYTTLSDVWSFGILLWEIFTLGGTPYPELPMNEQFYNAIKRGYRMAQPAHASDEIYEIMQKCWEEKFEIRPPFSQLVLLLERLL
Experimental: as §1, §2

PIK4CB = target: T5, PIK4CB (Homo sapiens, UniProt Q9UBF8); test: Kinase competition binding assay, PIK4CB; conditions: Table 1 kinase panel
T5 construct: T7 phage fusion (most assays) or DNA tag for qPCR (HEK-293-made kinases); made in house
T5 sequence (Q9UBF8 whole entry, the tested form may be a part): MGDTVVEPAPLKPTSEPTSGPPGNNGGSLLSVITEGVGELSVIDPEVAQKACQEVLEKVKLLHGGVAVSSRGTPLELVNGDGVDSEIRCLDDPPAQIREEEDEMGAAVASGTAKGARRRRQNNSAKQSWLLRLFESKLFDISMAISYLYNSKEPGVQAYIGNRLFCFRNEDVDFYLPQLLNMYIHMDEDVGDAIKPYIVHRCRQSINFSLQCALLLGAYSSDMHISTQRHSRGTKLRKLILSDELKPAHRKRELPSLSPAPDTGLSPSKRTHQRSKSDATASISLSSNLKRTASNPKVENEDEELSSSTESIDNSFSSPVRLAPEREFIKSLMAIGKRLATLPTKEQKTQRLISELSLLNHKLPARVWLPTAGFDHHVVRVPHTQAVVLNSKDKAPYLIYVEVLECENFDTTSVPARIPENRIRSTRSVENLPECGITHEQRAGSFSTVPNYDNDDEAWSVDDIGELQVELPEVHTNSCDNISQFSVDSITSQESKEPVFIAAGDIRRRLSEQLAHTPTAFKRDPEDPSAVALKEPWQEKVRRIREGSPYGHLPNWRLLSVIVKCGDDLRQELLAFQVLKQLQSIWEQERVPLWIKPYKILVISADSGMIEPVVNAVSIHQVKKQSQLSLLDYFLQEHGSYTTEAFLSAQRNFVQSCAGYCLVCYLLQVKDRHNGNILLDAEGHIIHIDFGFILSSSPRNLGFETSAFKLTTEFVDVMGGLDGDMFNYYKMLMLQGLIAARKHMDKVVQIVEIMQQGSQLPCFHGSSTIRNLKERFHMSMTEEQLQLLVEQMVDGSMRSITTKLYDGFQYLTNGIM
Experimental: as §1, §2

SIRT-3 = target: T6, SIRT-3 (Homo sapiens, UniProt Q9NTG7); test: Inhibition of sirtuins, SIRT-3; assay type: biochemical; conditions: Table 3 SIRT
T6 sequence (Q9NTG7 1-399): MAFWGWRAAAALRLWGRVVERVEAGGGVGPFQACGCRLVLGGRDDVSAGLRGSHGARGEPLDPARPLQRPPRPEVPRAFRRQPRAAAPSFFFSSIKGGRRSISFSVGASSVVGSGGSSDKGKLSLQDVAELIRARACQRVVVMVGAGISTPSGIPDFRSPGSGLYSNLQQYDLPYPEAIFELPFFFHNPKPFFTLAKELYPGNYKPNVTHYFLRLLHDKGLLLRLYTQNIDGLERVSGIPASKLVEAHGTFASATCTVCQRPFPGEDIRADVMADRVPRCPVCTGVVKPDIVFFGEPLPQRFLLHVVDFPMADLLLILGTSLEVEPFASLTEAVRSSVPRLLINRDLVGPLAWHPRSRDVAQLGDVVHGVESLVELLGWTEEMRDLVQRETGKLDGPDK
Source text: Inhibition of Sirtuins, Matrix Metalloproteinase, Bromodomains was Also Confirmed Using Standard Protocols and the Results are Present in Table 2.

CFPAC-1 (Pancreatic) = test: WST-1 anticancer cell proliferation assay, CFPAC-1; assay type: cell-based, human; conditions: 72 hours
Experimental: Bioactivity of the above-described compounds has been verified by an anticancer cell proliferation assay using the WST-1 (4-[3-(4-iodophenyl)-2-(4-nitrophenyl)-2H-5-tetrazolio]-1, 3-benzene disulfonate) colorimetric assay by Roche Life Sciences®. Anticancer activity was tested against several standard cancer cell lines including brain, breast, Kaposi sarcoma, leukemia, lung, melanoma, tenosynovial giant cell tumor, ovarian, pancreatic, colon and prostate cancer. Cells were trypsinized and plated into 96 well plates in 50 μl of media and incubated overnight. The next day approximately 18 hours after plating, 50 μl of media containing the required flavonoid-based pharmaceutical composition was added per well. Cells were plated at a density so that 72 hours post drug addition, the cells will be in log phase (500)-2000 cells/well). The compounds and extracts were solubilized in Dimethyl sulfoxide (DMSO). The cells are allowed to proliferate for 72 hours 37° C. in humidified atmosphere of 5% CO2. The experiment is terminated using WST-1 (Roche®) 10 μl per well and absorbance is read at 450 nm %690 nm. The effect of drugs on growth is assessed as percent of cell viability. The IC50 values were determined from the extract dose versus control growth curves using Graphpad Prism® software. All experiments were carried out in duplicate and the mean results determined.

T1 sequence (P10721 26-976 D820Y): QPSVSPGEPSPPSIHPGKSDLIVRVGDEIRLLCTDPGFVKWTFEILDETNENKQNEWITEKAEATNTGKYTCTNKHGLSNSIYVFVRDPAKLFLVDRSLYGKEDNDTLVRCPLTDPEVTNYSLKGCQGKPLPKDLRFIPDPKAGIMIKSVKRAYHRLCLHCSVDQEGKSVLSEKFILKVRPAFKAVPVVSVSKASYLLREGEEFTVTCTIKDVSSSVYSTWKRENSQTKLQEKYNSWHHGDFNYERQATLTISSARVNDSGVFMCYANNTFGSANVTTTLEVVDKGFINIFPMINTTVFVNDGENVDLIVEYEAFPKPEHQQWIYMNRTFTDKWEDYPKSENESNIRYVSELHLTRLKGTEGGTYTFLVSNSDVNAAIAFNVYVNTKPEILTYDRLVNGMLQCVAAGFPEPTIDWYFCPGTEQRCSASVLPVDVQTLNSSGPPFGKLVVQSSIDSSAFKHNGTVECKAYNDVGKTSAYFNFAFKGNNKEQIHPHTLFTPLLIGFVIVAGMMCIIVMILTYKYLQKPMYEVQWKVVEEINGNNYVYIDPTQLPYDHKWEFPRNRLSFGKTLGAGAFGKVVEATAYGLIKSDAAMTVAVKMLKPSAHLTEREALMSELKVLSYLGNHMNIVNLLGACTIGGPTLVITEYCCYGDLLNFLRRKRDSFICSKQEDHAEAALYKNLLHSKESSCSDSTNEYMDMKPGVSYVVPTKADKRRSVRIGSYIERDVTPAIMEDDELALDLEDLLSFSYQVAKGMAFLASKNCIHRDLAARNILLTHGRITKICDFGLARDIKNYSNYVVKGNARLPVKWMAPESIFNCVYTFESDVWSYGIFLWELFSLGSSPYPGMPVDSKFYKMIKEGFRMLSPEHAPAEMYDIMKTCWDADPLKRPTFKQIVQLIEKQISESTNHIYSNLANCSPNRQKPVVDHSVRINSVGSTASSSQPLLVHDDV

SMILES | IC50 (c-Kit(D820Y)) | IC50 (FGR) | IC50 (FLT4(VEGFR3)) | IC50 (PDGFRB) | IC50 (PIK4CB) | IC50 (SIRT-3) | IC50 (CFPAC-1 (Pancreatic))
COc1cc(-c2cc(=O)c3c(O)c(C/C=C(\C)CCC=C(C)C)c(O)cc3o2)ccc1O [FBL-03A] | > 20000 nM | > 20000 nM | 330 nM | 330 nM | 670 nM | 94.9 µM | 12 µM
COc1cc(-c2cc(=O)c3c(O)c(CC=C(C)C)c(O)cc3o2)ccc1O [FBL-03B] | 1280 nM | 224 nM | 9.3 nM | 1160 nM | – | 77 µM | 17 µM
COc1cc(-c2cc(=O)c3c(O)cc(O)c(C/C=C(\C)CCC=C(C)C)c3o2)ccc1O [FBL-03C] | > 20000 nM | > 20000 nM | > 20000 nM | > 1000 nM | > 1000 nM | 65.4 µM | 12 µM
COc1ccc(-c2cc(=O)c3c(O)c(C/C=C(\C)CCC=C(C)C)c(O)cc3o2)cc1OC [FBL-03D] | > 30000 nM | > 30000 nM | > 30000 nM | > 30000 nM | > 30000 nM | – | –
COc1cc(-c2cc(=O)c3c(O)cc(O)c(CC=C(C)C)c3o2)ccc1O [FBL-03G] | 113 nM | 880 nM | 4220 nM | 3310 nM | > 20000 nM | 66.4 µM | 14.3 µM
